Laboratory results: patent US20230255953A1, “USE OF ROLUPERIDONE IN PREVENTING RELAPSE IN SCHIZOPHRENIA PATIENTS” (Minerva Neurosciences, Inc., priority 2022, published 2023)

Tested on: patients with negative symptoms of schizophrenia
Experiment: Study #1 (MIN-101C03): Brief Negative Symptoms Scale (BNSS)
Assay type: in vivo, human
Details: Week 12 DB, ITT
From the text: As used herein, “BNSS” is the Brief Negative Symptom Scale. “BNSS” is 13-item instrument designed to measure negative symptoms, specifically: blunted affect, alogia, asociality, anhedonia, and avolition (Kirkpatrick, et al., “The Brief Negative Symptom Scale: Psychometric Properties,” Schizophr. Bull., 2011, 37(2), 300-5.).
Phase 2b Study #1 (also referred to herein as “MIN-101C03”) was a Phase 2b, double-blind (“DB”), placebo-controlled, randomized, multicenter 12-week study to evaluate the efficacy, safety, and tolerability of Roluperidone in patients ≥18 years to ≤60 years with negative symptoms of schizophrenia, followed by a 24-week open-label (“OL”) extension. The primary objective of the study was to evaluate the efficacy of Roluperidone compared to placebo in improving the negative symptoms of schizophrenia as measured by the change from Baseline in the PANSS negative factor score of the PSM (“PANSS PSM”) over 12 weeks of treatment.
The study consisted of a pretreatment screening period of up to 28 days (including washout), a 12-week, DB, placebo-controlled period, and a 24-week OL period. Eligible patients (who were symptomatically stable for at least 3 months and had scores of at least 20 on the PANSS negative subscale score) were randomized in a 1:1:1 ratio to receive oral Roluperidone (a modified-release, “MR”, formulation) 32 mg QD, Roluperidone 64 mg QD, or placebo for 12 weeks. […] During the 24-week, OL treatment extension period, patients who were initially randomized to Roluperidone 32 mg or 64 mg continued on the same dose, while patients who were initially randomized to placebo crossed over to Roluperidone 32 mg or 64 mg in a 1:1 ratio.

## 1H-Isoindol-1-one,2-[ [1-[2-(4-fluorophenyl)-2-oxoethyl]-4-piperidinyl]methyl]-2,3-dihydro-, hydrochloride, hydrate (1:1:2) [Roluperidone]
32 mg QD
  Change from Baseline LS Mean: Brief Negative Symptoms Scale Total Score: −5.44
  Effect Size vs Placebo: Brief Negative Symptoms Scale Total Score: 0.33
64 mg QD
  Change from Baseline LS Mean: Brief Negative Symptoms Scale Total Score: −6.94
  Effect Size vs Placebo: Brief Negative Symptoms Scale Total Score: 0.56
